From patent publication US4571405A, “Anti-allergic chromone- or thiochromone-5-oxamic acid derivatives, compositions, and method of use therefor” (Miles Laboratories, Inc., priority 1984, dated 1986) come the findings set out here.

Experiment [1] concerns passive cutaneous anaphylaxis reaction (PCA reaction). Description: Passive cutaneous anaphylaxis reaction (PCA reaction), intravenous, rats. The class given is in vivo, Male Lister-Hooded rats. Conditions: for ED50: Rattus norvegicus, iv. The method, then:
(§1) The antiallergic activity of the compounds of the present invention was determined by a passive cutaneous anaphylaxis reaction (PCA reaction) which was conducted as described in Life Sciences, 1, p. 465 (1963) and Immunology, 12, p. 113 (1967) both of which are incorporated herein by reference. Male Lister-Hooded rats were depilated and injected intradermally with a dilution of rat serum containing IgE antibody against ovalbumin. Twenty-four hours later the rats were challenged with an intravenous injection of the antigen (ovalbumin) and a blue indicator dye. The intensity of the passive cutaneous anaphylactic reaction was determined by observing the size of discrete blue sites (from the indicator) on the backs of the rats. Simultaneous with the challenge, one group of the rats was injected (intravenously) with various concentrations of test compounds (i.e., compounds of formula I), in order to determine the 50 percent inhibitory concentration (IC50) for each of said compounds tested. The other group of rats was administered intravenous sodium cromoglycate (SCG), a known antiallergic agent and thus served as a positive control. The results of this test are set forth in Table 1 where the IC50 for the test compounds and SCG are expressed irn micromoles per kiligram of body weight.

A further experiment relates to PCA reaction. Description: Oral activity in PCA reaction (intragastric dose), rats. The class given is in vivo, Male Lister-Hooded rats. Conditions: 30 mg/kg intragastrically, thirty minutes prior to antigen challenge, relative to control; for inhibition at 30 mg/kg: Rattus norvegicus, po, read-out: Percent Inhibition of PCA Reaction. The method, then: as §1
Following substantially the same technique as described above, the oral activity of various test compounds (i.e., compounds of formula I) was determined. Thirty minutes prior to the antigen challenge described above, a dose of 30 mg/kg of one of the test compounds was administered intragastrically and the percent inhibition of the percutaneous anaphylactic reaction was determined (as compared to control animals where no test compound was administered). The results of this test are set forth in Table 2 and are expressed as percent inhibition of anaphylaxis relative to control.

The test system of the next experiment is mast cells. Description: Inhibition of antigen-induced histamine (spasmogen) release from passively sensitized peritoneal mast cells. The class given is cell-based, rats. The procedure:
Peritoneal mast cells passively sensitized to antigen (dinitrophenyl-ovalbumin) 24 hours previously were obtained by lavage. Pools of cells were prepared from ten or more rats and aliquots (100 μl) were dispensed into polyethylene tubes. To each tube was added one of the test compounds at a concentration shown in Table 3 together with a constant dose (1 μg) of antigen (dinitrophenyl-bovine serum albumin). Each treatment was repeated in at least three tubes. All of the tubes were incubated at 37° C. for 10 minutes. The mast cells were sedimented by centrifugation and the supernatant fluid removed. The concentration of histamine released as a result of the addition of antigen was determined fluorimetrically and comparisons made with the concentration of histamine released in the absence of drug using the formula: [formula] where d=histamine release in presence of test compound,
a=histamine release in presence of antigen along
s=histamine release in presence of saline or drug vehicle (i.e., control).
The results of this test are set forth in Table 3 and are expressed as a percent inhibition of spasmogen release for each concentration (in moles) of the test compound utilized in the above-described procedure.

Where [2] appears, read: simultaneous with antigen (ovalbumin) challenge, per kilogram of body weight, read-out: INHIBITION OF PCA REACTION IC50, Compound of Example No.

Several values for one entry are separate records, joined by “and”; a condition that tells them apart may be missing. Equal entries are not always repeated. Where two headings read alike, the source gives them in different places.

As for `O=C(O)C(=O)Nc1cccc2oc3c(c(=O)c12)CCCC3` [2,3cyclohexenochromone-5-oxamic acid, 2,3-cyclohexenochromone-5-oxamic acid], in experiment [1] (intravenous, simultaneous with antigen (ovalbumin) challenge, per kilogram of body weight, listed as 2,3cyclohexeneochromone-5-oxamic acid), the “INHIBITION OF PCA REACTION IC50, Compound of Example No.” value amounted to 11.2 micromoles/kilogram.

For orientation: inhibition means the relative decrease from the control value, in per cent. On to `O=C(O)C(=O)Nc1cccc2oc3c(c(=O)c12)CCCC3` [Example I, Sodium 2,3-cyclohexenochromone-5-oxamate], for which the ED50 in experiment [1] (setting [2]) stood at 10.4 µmol/kg. Besides, the inhibition at 30 mg/kg in the experiment with PCA reaction worked out at 27%. Besides, the “Percent Inhibition of Mast Cell Histamine Release” value in the experiment on mast cells (10^-2 (moles)) was determined as 85.7%; with mast cells (10^-3 (moles)) it was 78.6%; in the experiment on mast cells (10^-4 (moles)), 10.9%; in the experiment on mast cells (10^-5 (moles)) it was 12.6%; with mast cells (10^-6 (moles)), 12.0%.

For `CC1(C)CCc2sc3cccc(NC(=O)C(=O)O)c3c(=O)c2C1` [Example V, Sodium 2,3-(4',4'-dimethylcyclohexeno)thiochromone-5-oxamate], in experiment [1] (setting [2]), the ED50 was 10 µmol/kg. Further, the inhibition at 30 mg/kg with PCA reaction turned out to be 14%. For the same molecule, the “Percent Inhibition of Mast Cell Histamine Release” value in the experiment with mast cells (10^-2 (moles)) is listed as 96.7%; in the experiment on mast cells (10^-3 (moles)), 74.8%; in the experiment on mast cells (10^-4 (moles)) it was 40.8%; in the experiment on mast cells (10^-5 (moles)), 2.7%; in the experiment on mast cells (10^-6 (moles)), 38.7%.

In the case of `CC1(C)CCC2=C(C1)C(=O)c1c(NC(=O)C(=O)O)cccc1S2(=O)=O` [Example VI, Sodium 2,3-(4',4'-dimethylcyclohexeno)thiochromone-5-oxamate-1,1-dioxide], the ED50 in experiment [1] (setting [2]) turned out to be 16.5 µmol/kg. Moreover, the inhibition at 30 mg/kg in the experiment on PCA reaction amounted to 27%. The “Percent Inhibition of Mast Cell Histamine Release” value was determined as 95.1% in the experiment with mast cells (10^-2 (moles)); 86.9% with mast cells (10^-3 (moles)); 44.1% in the experiment on mast cells (10^-4 (moles)); 3.7% in the experiment with mast cells (10^-5 (moles)); 4.4% in the experiment with mast cells (10^-6 (moles)).

In the case of `CCC1CCc2oc3cccc(NC(=O)C(=O)O)c3c(=O)c2C1` (stereo not shown) [II, Sodium 2,3-(4'-ethylcyclohexeno)chromone-5-oxamate], in experiment [1] (setting [2]), the ED50 amounted to 15.5 µmol/kg. In addition, in the experiment on PCA reaction, the inhibition at 30 mg/kg is 46%.

As to `CC1(C)CCc2oc3cccc(NC(=O)C(=O)O)c3c(=O)c2C1` [III, Sodium 2,3-(4',4'-dimethylcyclohexeno)chromone-5-oxamate], the ED50 in experiment [1] (setting [2]) came out at 9.6 µmol/kg. For the same molecule, the inhibition at 30 mg/kg with PCA reaction amounted to 60%. For the same molecule, the “Percent Inhibition of Mast Cell Histamine Release” value in the experiment on mast cells (10^-2 (moles)) was determined as 92.9%; in the experiment on mast cells (10^-3 (moles)), 95.1%; in the experiment on mast cells (10^-4 (moles)), 57.6%; in the experiment with mast cells (10^-5 (moles)) it was 10.6%; in the experiment with mast cells (10^-6 (moles)), 8.2%.

With `Cc1oc2cccc(NC(=O)C(=O)O)c2c(=O)c1C` [IV, Sodium 2,3-dimethylchromone-5-oxamate], in experiment [1] (setting [2]), the ED50 worked out at 5 µmol/kg. Further, in the experiment on PCA reaction, the inhibition at 30 mg/kg is 39%.

Take `O=C(O)c1cc(=O)c2c(OCC(O)COc3cccc4oc(C(=O)O)cc(=O)c34)cccc2o1` [SCG, sodium cromoglycate, reference compound]: in experiment [1] (intravenous sodium cromoglycate positive control, run alongside each test compound, read-out: INHIBITION OF PCA REACTION IC50, SCG), the ED50 is 3.6 µmol/kg. The “INHIBITION OF PCA REACTION IC50, SCG” value in experiment [1] (intravenous sodium cromoglycate positive control, run alongside each test compound) was 2.1 micromoles/kilogram and 1.8 micromoles/kilogram and 2.4 micromoles/kilogram.

In the case of `O=C1c2ccccc2S(=O)(=O)c2cc(-c3nnn[nH]3)ccc21` [doxantrazole, reference compound], the “Percent Inhibition of PCA Reaction” value with PCA reaction is “ten”.

For the molecule `CCCc1c2c(c(O)c3c(=O)cc(C(=O)O)oc13)CCCC2` [proxicromil, reference compound], the “Percent Inhibition of PCA Reaction” value in the experiment on PCA reaction is given as “ten”.
